Reference: US20240050526A1, “CATH2 DERIVATIVES FOR STIMULATING INNATE IMMUNE MEMORY” (priority 2020, published 2024)
Square brackets hold non-standard residues; d marks the D form. Ends that are not written are not given here.

Key:
[1] = system: avian pathogenic E. coli; settings: prophylactic in ovo injection of chicken embryos; cited from earlier work
[2] = system: dTHP-1 cells; experiment: Metabolomics of DCATH-2 trained dTHP-1 cells; format: cell-based, human
Description: dTHP-1 cells were seeded (1×10^6 cells/well) in 6 wells plates and primed during 24 h with 5 μM DCATH-2 as described using medium as control. Cell supernatants, cell lysates and medium controls were collected before and after 24 h priming in the absence and presence of 10 nM rapamycin, after washing followed by 3 days rest and after subsequent 24 h LPS (E. coli O111:B4) stimulation. For sample collections, cells were washed once in ice-cold PBS, lysed with by adding 1 ml cold methanol/acetonitrile/water (2:2:1) lysis buffer, scraped and transferred in to vials. Cell supernatants and medium control samples (10 μl) were directly mixed with 200 μl lysis buffer. Samples were shaken for 10 min at 4° C. and centrifuged for 15 min at 18,000×g and 4° C. Supernatants were flash frozen in liquid nitrogen and stored at −80° C. for analysis. Liquid chromatography-mass spectrometry analysis was performed using an Exactive mass spectrometer (Thermo Scientific), coupled to a Dionex Ultimate 3000 auto sampler and pump (Thermo Scientific). The mass spectrometry operated in polarity-switching mode with spray voltages of 4.5 and −3.5 kV. Metabolites were separated using a Sequant ZIC-pHILIC column (2.1×150 mm, […], guard column 2.1×20 mm, […]; Merck) using a linear gradient of acetonitrile and eluent A 20 mM (NH4)2CO3, 0.1% NH40H in ULC/MS grade water (Biosolve BV, Valkenswaard, The Netherlands) and a flow rate of 150 μl/min. Metabolites were identified and peak intensities quantified using LCquan software (Thermo Scientific) on the basis of exact mass within 5 ppm and further validated by concordance with retention times of commercially available standards. Peak intensities were normalized on cell counts of parallel wells before and after LPS stimulation.

[3] = system: Candida albicans ATCC10231; experiment: Candidacidal activity of DCATH-2 primed dTHP-1 cells; format: cell-based; settings: 24 h DCATH-2 training; colonies after 48 h
Description: dTHP-1 cells were seeded in 6 well plates and primed with DCATH-2 or medium as described. Candida albicans ATCC10231 was grown in yeast malt broth (Oxoid) at 30° C., diluted in DPBS to 1×10^4 CFU/ml and added to each well (MOI of 0.03). After 5 h incubation at 30° C., supernatants were transferred and kept. The remaining cells were supplemented with 0.5 ml of sterile water, mixed vigorously and combined with their corresponding well supernatants. Serial dilutions prepared in yeast malt broth were plated onto yeast malt agar. Colonies were counted after 48 h at 30° C.

[4] = system: dTHP-1 cells; experiment: Innate immune training of dTHP-1 cells by cathelicidin peptides, cytokine ELISA after TLR agonist re-stimulation; format: cell-based, human
Description: THP-1 cells were cultured in Iscove Modified Dulbecco Media (IMDM, Gibco) containing Glutamax-I, sodium pyruvate, 10% fetal calf serum at 37° C. and 5% CO2. For differentiation to macrophage-like cells, THP-1 cells were grown in IMDM/FCS medium containing 8 of 100 nM PMA and seeded in 96 wells (5×10^4 cells/well), 24 wells (3×10^5 cells/well) or 6 wells plates (1×10^6 cells/well) during 48 h. Subsequently, dTHP-1 were washed with pre-warmed IMDM/FCS, left overnight to rest and primed during 1 to 24 h with 2-10 μM peptides of fresh IMDM/FCS medium, washed 3 times in medium. After 3 days rest cells were stimulated with various stimuli: S. minnesota LPS (10 ng/ml), E. coli LPS (10 or 50 ng/ml), Pam3CSK4 (1 μg/ml) or Pam2CSK4 (1 μg/ml). After 24 h supernatants were collected and stored at −20° C. For inhibition, dTHP-1 cells were pre-incubated for 1 h before priming and during priming with rapamycin (10 nM), AICAR (50 nM), metformin (0.3 mM), wortmannin (1 μM), ascorbate (50 μM), SB203580 (10 μM), PD98059 (10 μM), SP600125 (10 μM), EGCG (40 μM), anacardic acid (50 μM), curcumin (10 μM), garcinol (10 μM), Bay-11-7085 (10 μM), MTA (1 mM), MM-102 (25 μM), suramin (50 μM), KN-62 (3 μM), nystatin (10 μg/ml), and chlorpromazine (10 μM).
TNFα, IL-6, CXCL10 and CCL5 production were measured using ELISA (R&D systems) following instructions of the manufacturer.
Extrapolating from the trained immunity experiments with human monocytes, we examined if mature cathelicidin peptides could induce trained immunity in TH P-1 cells, a human monocyte cell line. TH P-1 cells were differentiated with 100 nM or 8 nM phorbol 12-myristate 13-acetate (PMA) during 48 h washed 3 times and, after overnight rest, primed with 2-10 μM of chicken cathelicidin 2 (CATH-2), its full D-analog DCATH-2 or human cathelicidin LL-37 for 24 h. Subsequently, dTHP-1 cells were washed 3 times and re-stimulated after a 3-day rest period with TLR agonists (24 h) (FIG. 1a). […] Priming with 5 μM of its full-D-amino acid analog DCATH-2 amplified 2- to 3-fold the TNFα and IL-6 production in response to LPS stimulation. A minor response was found for priming with 10 μM LL-37, which amplified IL-6 production 1.4-fold in 100 nM differentiated cells.

[5] = system: Salmonella enterica; settings: injected into the yolk of zebrafish embryos, intravenous infection; cited from earlier work
[6] = system: Salmonella enteritidis 706; experiment: Antibacterial activity (intracellular killing) of DCATH-2 primed dTHP-1 cells; format: cell-based, Salmonella enterica subsp. enterica serovar enteritidis; settings: 24 h DCATH-2 training; colonies after 24 h
Description: Antibacterial activity was determined according to Tang et al.. dTHP-1 cells were seeded in 6 well plates and primed with DCATH-2 or medium as described. Log-phase culture of Salmonella enterica subsp. enterica serovar enteritidis 706 (Se706) was added to each well at a MOI of 1. After 2 h incubation at 37° C., cells were washed twice with warm DPBS and further incubated for 1 h incubation at 37° C. with IMDM/FCS medium containing 300 μg/ml colistin. After incubation, cells were washed 3 times in DPBS and the lysed with 1% triton X-100. Well contents were serially diluted in tryptone soy broth (Oxoid), plated on tryptone soy agar and counted after 24 h at 37° C.

[7] = 5 μM, 24 h priming, 3 days rest
[8] = after 24 h E. coli LPS stimulation

rfgrflrkirrfrpkvtitiqgsarf-NH2 ([dR][dF]G[dR][dF][dL][dR][dK][dI][dR][dR][dF][dR][dP][dK][dV][dT][dI][dT][dI][dQ]G[dS][dA][dR][dF]-NH2; N-terminus assumed; SMILES CC[C@@H](C)[C@@H](NC(=O)[C@@H](CCCCN)NC(=O)[C@@H](CCCNC(=N)N)NC(=O)[C@@H](CC(C)C)NC(=O)[C@@H](Cc1ccccc1)NC(=O)[C@@H](CCCNC(=N)N)NC(=O)CNC(=O)[C@@H](Cc1ccccc1)NC(=O)[C@H](N)CCCNC(=N)N)C(=O)N[C@H](CCCNC(=N)N)C(=O)N[C@H](CCCNC(=N)N)C(=O)N[C@H](Cc1ccccc1)C(=O)N[C@H](CCCNC(=N)N)C(=O)N1CCC[C@@H]1C(=O)N[C@H](CCCCN)C(=O)N[C@@H](C(=O)N[C@@H](C(=O)N[C@@H](C(=O)N[C@@H](C(=O)N[C@@H](C(=O)N[C@H](CCC(N)=O)C(=O)NCC(=O)N[C@H](CO)C(=O)N[C@H](C)C(=O)N[C@H](CCCNC(=N)N)C(=O)N[C@H](Cc1ccccc1)C(N)=O)[C@H](C)CC)[C@H](C)O)[C@H](C)CC)[C@H](C)O)C(C)C) [DCATH-2, full D-amino acid analog of CATH-2]
colibacilossis-associated mortality and morbidity [1]: considerably reduced | TCA cycle and urea cycle [2, 7]: not significantly affected | de novo pyrimidine synthesis [2, 7]: increased | glycolysis (metabolic intermediates) [2, 7]: increased | intracellular glucose concentrations [2, 7]: lower | intracellular lactate levels [2, 7]: higher | lactate secretion into the medium [2, 7]: augmented | levels of intracellular medium-chain and long-chain acylcarnitines [2, 7]: dramatically increased | usage of amino acids [2, 7]: overall enhanced usage | TCA cycle, urea cycle or amino acid metabolism ([2]; LPS stimulation of trained cells): did not affect | intracellular levels of medium-chain and long-chain acylcarnitines [2, 8]: remained elevated | training induced metabolic shift during LPS stimulation [2, 8]: maintained | inhibition of outgrowth of Candida albicans vs non-primed dTHP-1 cells [3]: 68±10% | TNFα and IL-6 production after re-stimulation with TLR2 and TLR4 ligands ([4]; 5 μM, re-stimulation with E. coli O111:B4 LPS, Pam3CSK4 or Pam2CSK4): amplified | production of CCL5 and CXCL10 ([4]; 5 μM, re-stimulation with TLR2 and TLR4 agonists): not altered | basal production levels of TNFα and IL-6 ([4]; 24 h priming (2.5-5 μM DCATH-2), 3 days rest, no re-stimulation): not altered | priming time reaching highest level of training ([4]; TNFα amplification, re-stimulation with 1 μg/ml Pam3CSK4): 24 h | mortality after lethal dose of Salmonella enterica [5]: delayed mortality | inhibition of outgrowth of Salmonella enteritidis vs non-primed dTHP-1 cells [6]: 78±11%
